Molecular target: T1, human CB1 receptor (Homo sapiens, UniProt P21554)
T1 construct: expressed in transfected cells; membranes used
Test: Cannabinoid Receptor-1 functional assay: inhibition of CP55940-induced [35S]GTPγS binding to membranes of CHO-K1 cells expressing human CB1
Format: biochemical
Details: 3 nM CP55940, [35S]GTPγS SPA, hCB1 membranes; read-out: IC50 value for antagonizing a CB1 receptor agonist
Text: Transfection and Cell Culture—The cDNA encoding the human CB1 (Cannabinoid Receptor-1) receptor (GenBank accession number NM_016083) was cloned from a human adipose tissue cDNA library and cloned into the eukaryotic expression vector pcDNA3.1 (Invitrogen).
Chinese Hamster Ovary cells (CHO-K1) stably expressing recombinant human CB1 were generated by transfecting the plasmid containing the coding sequence of the human CB1 receptor in CHO-K1 cells, using lipofectamin, according to the manufacturer instructions. Resistant clones were selected in the presence of 600 μg/ml G418 (Life technology). Stably transfected CHO-K1 cells were maintained in Ham's F-12 culture medium (Invitrogen), supplemented with 10% fetal calf serum (Invitrogen), 100 U/ml penicillin, 100 μg/ml streptomycin (Life Technology), and 600 μg/ml G418.
Functional activities of the above examples of compounds of the invention were assessed in vitro by measuring their ability to inhibit CP55940-induced [^35S]GTPγS binding to membranes prepared from CHO-K1 cells expressing the human CB1 receptor (described in Transfection and Cell Culture). CP55940 is a well known non-selective CB1 and CB2 receptor agonist (e.g Felder et al., 1995, Molecular Pharmacology, (48) 443-50). Membranes were prepared by a standard procedure. Briefly, cells were harvested using 10 mM EDTA and collected by centrifugation. Pelleted cells were homogenized in ice-cold 20 mM Hepes (pH 7.4), 10 mM EDTA and protease inhibitors (Complete protease inhibitor cocktail tablet, Roche) using an Ultra Turrax Homogenizer. The homogenate was centrifuged at 14 000 rpm for 45 min. at 4° C. The resultant pellet was resuspended in the same buffer but with only 0.1 mM EDTA and was again centrifuged at 14 000 rpm for 45 min. at 4° C. The resulting pellet (membranes) was resuspended in 20 mM Hepes (pH 7.4), 0.1 mM EDTA, 2 mM MgCl2 and protease inhibitors and protein concentration was determined by Micro BCA Protein Assay Reagent Kit (Pierce Biotechnology) according to the manufacturer instructions. The [^35S]GTPγS SPA (Scintillation Proximity Assay) binding assay was performed by incubating 5 μg/well hCB1-membranes with 1 nM [^35S]GTPγS (Perkin Elmer—NEG 030H) in the presence of 3 nM of CP55940 and various concentrations of the test compounds at room temperature for 1 hr in 96-well microtiter plates. 0.4 mg/well SPA beads (PVT-WGA; RPNQ0001 Amersham Pharmacia Biotech) were then added and the incubation continued for further 30 min. on an orbital shaker. The assay buffer contained 50 mM HEPES (pH 7.5), 50 mM NaCl, 2.5 mM MgCl2, 0.1% BSA, 1 μM GDP and 100 μg/ml Saponin. Microtiter plates were centrifuged at 1500 rpm for 5 min. and radioactivity was read immediately using a Topcounter (PerkinElmer Life Sciences). Data were analyzed and IC50 values determined by non-linear regression using the Prism software (GraphPad Software, San Diego).

T1 sequence (P21554 whole entry): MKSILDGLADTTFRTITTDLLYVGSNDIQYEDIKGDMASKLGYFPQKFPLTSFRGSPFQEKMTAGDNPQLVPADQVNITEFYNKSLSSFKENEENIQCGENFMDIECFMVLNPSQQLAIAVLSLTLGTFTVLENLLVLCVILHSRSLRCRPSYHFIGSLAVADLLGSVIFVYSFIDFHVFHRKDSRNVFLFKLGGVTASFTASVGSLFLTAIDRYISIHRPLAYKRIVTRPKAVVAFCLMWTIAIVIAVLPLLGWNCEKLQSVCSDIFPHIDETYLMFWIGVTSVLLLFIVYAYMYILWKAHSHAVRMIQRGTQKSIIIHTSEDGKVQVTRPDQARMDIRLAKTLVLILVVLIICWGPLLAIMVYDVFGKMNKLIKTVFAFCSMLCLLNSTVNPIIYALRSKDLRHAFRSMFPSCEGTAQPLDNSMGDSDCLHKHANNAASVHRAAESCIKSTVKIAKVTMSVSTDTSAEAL

Row | IC50 [nM] | Structure (SMILES)
1 | < 300 | CO[C@H]1CN(C(=O)c2nn(-c3ccccc3Cl)c(-c3ccc(Cl)cc3)c2CC(=O)O)CC[C@@H]1c1ccccc1 (relative stereo) [[1.56], {1-(2-Chloro-phenyl)-5-(4-chloro-phenyl)-3-[trans-4-phenyl-3-methoxy-piper-idine-1-carbonyl]-1H-pyrazol-4-yl}-acetic acid]
2 | < 300 | O=C(O)Cc1c(C(=O)N2CC=C(c3ccccc3)CC2)nn(-c2ccccc2Cl)c1-c1ccc(Cl)cc1 [Compound [1.1], [1-(2-Chloro-phenyl)-5-(4-chloro-phenyl)-3-(4-phenyl-3,6-dihydro-2H-pyridine-1-carbonyl)-1H-pyrazol-4-yl]-acetic acid]
3 | 300 to 3000 | O=C(O)Cc1c(C(=O)N2CCN(c3ccccc3)CC2)nn(-c2ccccc2Cl)c1-c1ccc(Cl)cc1 [Compound [1.2], [1-(2-Chloro-phenyl)-5-(4-chloro-phenyl)-3-(4-phenyl-piperazine-1-carbonyl)-1H-pyrazol-4-yl]-acetic acid]
4 | < 300 | O=C(O)COc1c(C(=O)N2CCC(c3ccc(F)cc3)CC2)nn(-c2ccccc2Cl)c1-c1ccc(Cl)cc1 [Compound [1.3], {5-(4-Chloro-phenyl)-1-(2-chloro-phenyl)-3-[4-(4-fluoro-phenyl)-piper-idine-1-carbonyl]-1H-pyrazol-4-yloxy}-acetic acid]
5 | 3000 to 10000 | O=C(O)Cc1c(C(=O)N2CCC(O)(c3cccnc3)CC2)nn(-c2ccccc2Cl)c1-c1ccc(Cl)cc1 [Compound [1.8], [1-(2-Chloro-phenyl)-5-(4-chloro-phenyl)-3-(4′-hydroxy-3′,4′,5′,6′-tetrahydro-2′H-[3,4′]bipyridinyl-1′-carbonyl)-1H-pyrazol-4yl]-acetic acid]
6 | < 300 | O=C(O)Cc1c(C(=O)N2CCC(c3cccc(F)c3)CC2)nn(-c2ccccc2Cl)c1-c1ccc(Cl)cc1 [Compound [1.13], {1-(2-Chloro-phenyl)-5-(4-chloro-phenyl)-3-[4-(3-fluoro-phenyl)-piper-idine-1-carbonyl]-1H-pyrazol-4-yl}-acetic acid]
7 | < 300 | CC(C(=O)O)c1c(C(=O)N2CCC(c3ccccc3F)CC2)nn(-c2ccccc2Cl)c1-c1ccc(Cl)cc1 (stereo not shown) [Compound [1.52], 2-{1-(2-Chloro-phenyl)-5-(4-chloro-phenyl)-3-[4-(2-fluoro-phenyl)-piperidine-1-carbonyl]-1H-pyrazol-4-yl}-propionic acid]
8 | < 300 | O=C(O)C(O)c1c(C(=O)N2CCC(c3ccccc3F)CC2)nn(-c2ccccc2Cl)c1-c1ccc(Cl)cc1 (stereo not shown) [Compound [1.65], {1-(2-Chloro-phenyl)-5-(4-chloro-phenyl)-3-[4-(2-fluoro-phenyl)-piperidine-1-carbonyl]-1H-pyrazol-4-yl}-2-hydroxy acetic acid]
9 | 300 to 3000 | O=C(c1nn(-c2ccccc2Cl)c(-c2ccc(Cl)cc2)c1Cc1nn[nH]n1)N1Cc2ccc(F)cc2C1 [Compound [3.1], [5-(4-Chloro-phenyl)-1-(2-chloro-phenyl)-4-(2H-tetrazol-5-ylmethyl)-1H-pyrazol-3-yl]-(5-fluoro-1,3-dihydro-isoindol-2-yl)-methanone]
10 | < 300 | O=C(O)Cc1c(C(=O)N2CCc3ccccc3C2)nn(-c2ccccc2Cl)c1-c1ccc(Cl)cc1 [[1.4], [5-(4-Chloro-phenyl)-1-(2-chloro-phenyl)-3-(3,4-dihydro-1H-isoquinoline-2-carbonyl)-1H-pyrazol-4-yl]-acetic acid]
11 | < 300 | O=C(O)Cc1c(C(=O)N2CCC(c3ccc(F)cc3)CC2)nn(-c2ccccc2Cl)c1-c1ccc(Cl)cc1 [[1.5], {5-(4-Chloro-phenyl)-1-(2-chloro-phenyl)-3-[4-(4-fluoro-phenyl)-piperidine-1-carbonyl]-1H-pyrazol-4-yl}-acetic acid]
12 | < 300 | O=C(O)Cc1c(C(=O)N2CCC(O)(Cc3ccccc3)CC2)nn(-c2ccccc2Cl)c1-c1ccc(Cl)cc1 [[1.6], [3-(4-Benzyl-4-hydroxy-piperidine-1-carbonyl)-5-(4-chloro-phenyl)-1-(2-chloro-phenyl)-1H-pyrazol-4-yl]-acetic acid]
13 | < 300 | O=C(O)Cc1c(C(=O)N2CCC(O)(c3ccc(F)cc3)CC2)nn(-c2ccccc2Cl)c1-c1ccc(Cl)cc1 [[1.7], {1-(2-Chloro-phenyl)-5-(4-chloro-phenyl)-3-[4-(4-fluoro-phenyl)-4-hydroxy-piperidine-1-carbonyl]-1H-pyrazol-4-yl}-acetic acid]
14 | 300 to 3000 | O=C(O)Cc1c(C(=O)N2CCC(O)(c3ccccn3)CC2)nn(-c2ccccc2Cl)c1-c1ccc(Cl)cc1 [[1.9], [1-(2-Chloro-phenyl)-5-(4-chloro-phenyl)-3-(4′-hydroxy-3′,4′,5′,6′-tetrahydro-2′H-[2,4′]bipyridinyl-1′-carbonyl)-1H-pyrazol-4yl]-acetic acid]
15 | < 300 | O=C(O)Cc1c(C(=O)N2CCC(O)(c3ccc(C(F)(F)F)cc3)CC2)nn(-c2ccccc2Cl)c1-c1ccc(Cl)cc1 [[1.10], {1-(2-Chloro-phenyl)-5-(4-chloro-phenyl)-3-[4-hydroxy-4-(4-trifluoromethyl-phenyl)-piperidine-1-carbonyl]-1H-pyrazol-4-yl}-acetic acid]
16 | < 300 | O=C(O)Cc1c(C(=O)N2CCC(O)(c3cccc(C(F)(F)F)c3)CC2)nn(-c2ccccc2Cl)c1-c1ccc(Cl)cc1 [[1.11], {1-(2-Chloro-phenyl)-5-(4-chloro-phenyl)-3-[4-hydroxy-4-(3-trifluoromethyl-phenyl)-piperidine-1-carbonyl]-1H-pyrazol-4-yl}-acetic acid]
17 | < 300 | O=C(O)Cc1c(C(=O)N2CCC(O)(c3ccc(Cl)cc3)CC2)nn(-c2ccccc2Cl)c1-c1ccc(Cl)cc1 [[1.12], {1-(2-Chloro-phenyl)-5-(4-chloro-phenyl)-3-[4-(4-chloro-phenyl)-4-hydroxy-piperidine-1carbonyl]-1H-pyrazol-4-yl}-acetic acid]
18 | < 300 | O=C(O)Cc1c(C(=O)N2CCC(O)(c3ccccc3)CC2)nn(-c2ccccc2Cl)c1-c1ccc(Cl)cc1 [[1.14], [1-(2-Chloro-phenyl)-5-(4-chloro-phenyl)-3-(4-hydroxy-4-phenyl-piperidine-1-carbonyl)-1H-pyrazol-4-yl]-acetic acid]
19 | < 300 | O=C(O)Cc1c(C(=O)N2CCC(c3ccc(F)cc3)C2)nn(-c2ccccc2Cl)c1-c1ccc(Cl)cc1 (stereo not shown) [[1.15], {1-(2-Chloro-phenyl)-5-(4-chloro-phenyl)-3-[3-(4-fluoro-phenyl)-pyrrol-idine-1-carbonyl]-1H-pyrazol-4-yl}-acetic acid]
20 | 300 to 3000 | O=C(O)Cc1c(C(=O)N2CCN(c3ncccn3)CC2)nn(-c2ccccc2Cl)c1-c1ccc(Cl)cc1 [[1.16], [5-(4-Chloro-phenyl)-1-(2-chloro-phenyl)-3-(4-pyrimidin-2-yl-piperazine-1-carbonyl)-1H-pyrazol-4-yl]-acetic acid]
21 | < 300 | COC1(c2ccc(F)cc2)CCN(C(=O)c2nn(-c3ccccc3Cl)c(-c3ccc(Cl)cc3)c2CC(=O)O)CC1 [[1.17], {5-(4-Chloro-phenyl)-1-(2-chloro-phenyl)-3-[4-(4-fluoro-phenyl)-4-methoxy-piperidine-1carbonyl]-1H-pyrazol-4-yl}-acetic acid]
22 | 300 to 3000 | Cc1noc(C2CCN(C(=O)c3nn(-c4ccccc4Cl)c(-c4ccc(Cl)cc4)c3CC(=O)O)CC2)n1 [[1.20], {1-(2-Chloro-phenyl)-5-(4-chloro-phenyl)-3-[4-(3-methyl-[1,2,4]oxadiazol-5-yl)-piperidine-1-carbonyl]-1H-pyrazol-4-yl}-acetic acid]

— US8148404B2, “Modulators of CB1 receptors” (7TM Pharma A/S, priority 2006, dated 2012)
